In assay [1] the test system is Mycobacterium tuberculosis. Put plainly: Antimycobacterial activity against isoniazid and rifampicin resistant Mycobacterium tuberculosis 6133 by MABA method. The class given is functional. (In general: Resazurin is reduced to fluorescent resorufin, in cell work by metabolically active cells.)
Assay [2] relates to Mycobacterium tuberculosis. Put plainly: Antimycobacterial activity against isoniazid and rifampicin resistant Mycobacterium tuberculosis 11277 by MABA method. The class given is functional.

Converted amounts (≈) assume the structure as drawn.

Regarding `CO[C@H]1/C=C/O[C@@]2(C)Oc3c(C)c(O)c4c(O)c(c(/C=N/N5CCN(C)CC5)c(O)c4c3C2=O)NC(=O)/C(C)=C\C=C\[C@H](C)[C@H](O)[C@@H](C)[C@@H](O)[C@@H](C)[C@H](OC(C)=O)[C@@H]1C` [RIFAMPIN], the MIC in assay [1] and in assay [2] was over 40 µg/mL in each case.

Consider `CO/N=C1/CN(c2nc3c(cc2F)c(=O)c(C(=O)O)cn3[C@@H]2C[C@@H]2F)CC1CN` (stereo partly specified), for which the MIC in assay [1] amounted to 0.125 µg/mL (≈ 0.307 µM); in assay [2] it was 0.25 µg/mL (≈ 0.614 µM).

With `CCO/N=C1/CN(c2nc3c(cc2F)c(=O)c(C(=O)O)cn3[C@@H]2C[C@@H]2F)CC1CN` (stereo partly specified), the minimal inhibitory concentration (MIC) in assay [1] and in assay [2] was 0.125 µg/mL (≈ 0.297 µM) each time.

On to `CCO/N=C1/CN(c2cc3c(cc2F)c(=O)c(C(=O)O)cn3[C@@H]2C[C@@H]2F)CC1CN` (stereo partly specified), for which the MIC in assay [1] and in assay [2] was 0.125 µg/mL (≈ 0.297 µM) each time.

As to `CO/N=C1/CN(c2c(F)cc3c(=O)c(C(=O)O)cn([C@@H]4C[C@@H]4F)c3c2OC)[C@H]1CN`, the values for the MIC in assay [1] and in assay [2] were 0.125 µg/mL (≈ 0.296 µM) and 0.25 µg/mL (≈ 0.592 µM), respectively.

`NCC1CN(c2cc3c(cc2F)c(=O)c(C(=O)O)cn3[C@@H]2C[C@@H]2F)C/C1=N/OCc1ccccc1` (stereo partly specified): the MIC in assay [1] was 0.125 µg/mL (≈ 0.259 µM); in assay [2], 0.25 µg/mL (≈ 0.518 µM).

As to `O=C(O)c1cn(C2CC2)c2cc(N3CCNCC3)c(F)cc2c1=O` [CIPROFLOXACIN], the MIC in assay [1] and in assay [2] was 0.125 µg/mL (≈ 0.377 µM) in each case.

As to `CO/N=C1/CN(c2cc3c(cc2F)c(=O)c(C(=O)O)cn3[C@@H]2C[C@@H]2F)[C@H]1CN`, the MIC in assay [1] was determined as 0.125 µg/mL (≈ 0.319 µM); in assay [2], 0.25 µg/mL (≈ 0.637 µM).

For the compound `NCC1CN(c2nc3c(cc2F)c(=O)c(C(=O)O)cn3[C@@H]2C[C@@H]2F)C/C1=N/OCc1ccccc1` (stereo partly specified), the MIC in assay [1] is 0.125 µg/mL (≈ 0.259 µM); in assay [2], 0.5 µg/mL (≈ 1.03 µM).

Turning to `CO/N=C1/CCN(c2c(F)cc3c(=O)c(C(=O)O)cn([C@@H]4C[C@@H]4F)c3c2OC)CC1N` (stereo partly specified), the MIC in assay [1] amounted to 0.0625 µg/mL (≈ 0.143 µM); in assay [2] it was 0.125 µg/mL (≈ 0.286 µM).

Turning to `NC[C@H]1/C(=N\OCc2ccccc2)CN1c1cc2c(cc1F)c(=O)c(C(=O)O)cn2[C@@H]1C[C@@H]1F`, the MIC is 0.25 µg/mL (≈ 0.534 µM) in assay [1] and 0.5 µg/mL (≈ 1.07 µM) in assay [2].

In the case of `NNC(=O)c1ccncc1` [ISONIAZID], the values for the MIC in assay [1] and in assay [2] were 4 µg/mL (≈ 29.2 µM) and 1 µg/mL (≈ 7.29 µM), respectively.

On to `C[C@H]1COc2c(N3CCN(C)CC3)c(F)cc3c(=O)c(C(=O)O)cn1c23.C[C@H]1COc2c(N3CCN(C)CC3)c(F)cc3c(=O)c(C(=O)O)cn1c23.O` [LEVOFLOXACIN], for which the MIC in assay [1] and in assay [2] was 0.125 µg/mL in each case.

As a reminder, the MIC is the smallest concentration in the dilution series that meets the test's criterion for growth inhibition. A higher MIC goes with a less susceptible organism.

The values are drawn from ChEMBL document CHEMBL3352227, “Synthesis, antimycobacterial and antibacterial evaluation of l-[(1R, 2S)-2-fluorocyclopropyl]fluoroquinolone derivatives containing an oxime functional moiety” (Eur J Med Chem, 2014).
